# Assay results: patent US10392368B2, “Pyrazolo and triazolo bicyclic compounds as JAK kinase inhibitors” (THERAVANCE BIOPHARMA R&D IP, LLC, priority 2017, dated 2019)
# Assays:
# JAK1 = molecular target: T1, JAK1 (Homo sapiens, UniProt P23458); experiment: Biochemical JAK1 kinase assay (LanthaScreen)
# T1 construct: GST; purchased Life Technologies
# Outline: (§1)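 GST-JAK + GFP-STAT1 peptide + cpd, 1 h preinc RT; ATP start, 1% DMSO, 1 h RT; stop 10 mM EDTA + 2 nM Tb-anti-pSTAT1; 1 h; TR-FRET 520/495. % inhib vs DMSO/background → IC50 (4-PL) → pKi (Cheng-Prusoff).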
# JAK2 = molecular target: T2, JAK2 (Homo sapiens, UniProt O60674); experiment: Biochemical JAK2 kinase assay (LanthaScreen)
# T2 construct: GST; purchased Life Technologies
# T2 sequence (O60674 whole entry): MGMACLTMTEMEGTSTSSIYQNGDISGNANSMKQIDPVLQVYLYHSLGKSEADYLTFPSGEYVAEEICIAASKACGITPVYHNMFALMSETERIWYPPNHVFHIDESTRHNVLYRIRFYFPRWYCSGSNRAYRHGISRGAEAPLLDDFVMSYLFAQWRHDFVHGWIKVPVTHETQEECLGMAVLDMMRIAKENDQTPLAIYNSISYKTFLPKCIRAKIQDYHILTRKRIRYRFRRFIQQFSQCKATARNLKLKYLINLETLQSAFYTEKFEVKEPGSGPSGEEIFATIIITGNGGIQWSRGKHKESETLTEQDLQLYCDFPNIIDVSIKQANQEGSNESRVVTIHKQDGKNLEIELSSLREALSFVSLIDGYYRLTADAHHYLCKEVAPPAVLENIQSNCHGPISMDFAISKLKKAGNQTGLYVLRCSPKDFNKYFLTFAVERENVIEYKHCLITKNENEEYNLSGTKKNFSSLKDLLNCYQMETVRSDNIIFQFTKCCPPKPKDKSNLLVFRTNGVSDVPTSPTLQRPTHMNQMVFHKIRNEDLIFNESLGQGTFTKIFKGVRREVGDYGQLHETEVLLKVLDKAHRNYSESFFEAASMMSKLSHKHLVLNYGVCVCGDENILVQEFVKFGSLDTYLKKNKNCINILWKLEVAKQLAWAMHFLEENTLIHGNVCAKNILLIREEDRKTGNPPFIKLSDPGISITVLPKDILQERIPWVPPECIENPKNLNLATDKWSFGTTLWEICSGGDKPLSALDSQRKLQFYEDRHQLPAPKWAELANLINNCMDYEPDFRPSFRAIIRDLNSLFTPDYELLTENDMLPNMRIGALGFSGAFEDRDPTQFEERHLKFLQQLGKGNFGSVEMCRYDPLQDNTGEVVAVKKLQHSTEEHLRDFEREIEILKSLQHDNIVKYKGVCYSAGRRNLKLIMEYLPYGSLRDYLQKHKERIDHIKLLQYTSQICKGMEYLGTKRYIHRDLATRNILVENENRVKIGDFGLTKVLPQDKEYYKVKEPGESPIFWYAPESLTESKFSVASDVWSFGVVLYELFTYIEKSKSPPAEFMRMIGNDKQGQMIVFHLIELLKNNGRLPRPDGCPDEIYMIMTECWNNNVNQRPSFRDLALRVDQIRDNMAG
# Description: (§2) A panel of four LanthaScreen JAK biochemical assays (JAK1, 2, 3 and Tyk2) were carried in a common kinase reaction buffer (50 mM HEPES, pH 7.5, 0.01% Brij-35, 10 mM MgCl2, and 1 mM EGTA). Recombinant GST-tagged JAK enzymes and a GFP-tagged STAT1 peptide substrate were obtained from Life Technologies.
# (§3) Serially or discretely diluted compounds were pre-incubated with each of the four JAK enzymes and the substrate in white 384-well microplates (Corning) at ambient temperature for 1 h. ATP was subsequently added to initiate the kinase reactions in 10 μL total volume, with 1% DMSO. […] Kinase reactions were allowed to proceed for 1 hour at ambient temperature before a 10 μL preparation of EDTA (10 mM final concentration) and Tb-anti-pSTAT1 (pTyr701) antibody (Life Technologies, 2 nM final concentration) in TR-FRET dilution buffer (Life Technologies) was added. The plates were allowed to incubate at ambient temperature for 1 h before being read on the EnVision reader (Perkin Elmer).
# (§4) For dose-response analysis, percent inhibition data were plotted vs. compound concentrations, and IC50 values were determined from a 4-parameter robust fit model with the Prism software (GraphPad Software). Results were expressed as pIC50 (negative logarithm of IC50) and subsequently converted to pKi (negative logarithm of dissociation constant, Ki) using the Cheng-Prusoff equation.
# Tyk2 = molecular target: T3, Tyk2 (Homo sapiens, UniProt P29597); experiment: Biochemical Tyk2 kinase assay (LanthaScreen)
# T3 construct: GST; purchased Life Technologies
# T3 sequence (P29597 whole entry): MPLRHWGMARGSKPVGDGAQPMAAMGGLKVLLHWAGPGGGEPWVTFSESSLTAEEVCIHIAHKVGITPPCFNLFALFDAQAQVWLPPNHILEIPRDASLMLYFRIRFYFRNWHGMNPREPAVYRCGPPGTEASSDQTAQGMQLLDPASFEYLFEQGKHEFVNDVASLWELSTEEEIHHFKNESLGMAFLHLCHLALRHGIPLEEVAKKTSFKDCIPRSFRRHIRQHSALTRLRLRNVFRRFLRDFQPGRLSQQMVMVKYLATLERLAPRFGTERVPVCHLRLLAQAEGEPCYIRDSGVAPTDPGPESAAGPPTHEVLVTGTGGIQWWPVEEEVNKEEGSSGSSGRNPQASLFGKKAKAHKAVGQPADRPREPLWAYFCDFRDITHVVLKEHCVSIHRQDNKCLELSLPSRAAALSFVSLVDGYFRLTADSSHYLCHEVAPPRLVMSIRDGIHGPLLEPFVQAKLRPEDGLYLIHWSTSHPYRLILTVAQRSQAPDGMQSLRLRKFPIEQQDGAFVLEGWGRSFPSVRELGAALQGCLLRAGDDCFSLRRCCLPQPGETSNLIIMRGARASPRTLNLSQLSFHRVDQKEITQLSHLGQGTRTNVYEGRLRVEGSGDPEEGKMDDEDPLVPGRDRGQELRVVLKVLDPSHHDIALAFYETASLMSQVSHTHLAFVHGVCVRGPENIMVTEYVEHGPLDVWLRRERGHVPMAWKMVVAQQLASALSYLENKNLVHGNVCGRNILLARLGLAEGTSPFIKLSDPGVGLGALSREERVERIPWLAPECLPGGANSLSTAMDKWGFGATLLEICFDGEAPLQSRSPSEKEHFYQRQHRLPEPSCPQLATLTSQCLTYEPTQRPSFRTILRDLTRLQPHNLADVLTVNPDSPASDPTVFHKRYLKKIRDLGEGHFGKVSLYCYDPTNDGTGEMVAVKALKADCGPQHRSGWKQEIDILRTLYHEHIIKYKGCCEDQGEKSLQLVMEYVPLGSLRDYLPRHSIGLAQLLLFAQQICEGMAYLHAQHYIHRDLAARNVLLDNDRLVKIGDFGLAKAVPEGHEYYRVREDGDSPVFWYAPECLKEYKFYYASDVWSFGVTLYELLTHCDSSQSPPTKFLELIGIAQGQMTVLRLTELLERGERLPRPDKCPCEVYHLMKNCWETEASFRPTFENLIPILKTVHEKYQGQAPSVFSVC
# Description: as §2
# as §3, with “Elmer). Emission ratio signals (520 nm/495 nm) were recorded and utilized to calculate the percent inhibition values based on DMSO and background controls.” for “Elmer).”
# as §4
# [1] = tested on: IL-2 stimulated pSTAT5 in Tall-1 T cells; experiment: Cellular JAK3 potency assay: inhibition of IL-2 stimulated pSTAT5 in Tall-1 T cells; assay type: cell-based, human; details: for Tall-1 (pIC50): IL-2 stimulated pSTAT5 in Tall-1 T cells
# Outline: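 Tall-1 human T cells were preincubated with compound for 1 h at 37° C, then stimulated with IL-2 (300 ng/ml final) for 30 min. STAT5 phosphorylation in lysates was read by AlphaLisa bead emission, and IC50 from inhibition curves is given as pIC50 (mean±SD).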
# JAK3 = molecular target: T4, JAK3 (Homo sapiens, UniProt P52333); experiment: Biochemical JAK3 kinase assay (LanthaScreen); design: GST; purchased Life Technologies; details: for JAK3 (pKi)-JAK1 (pKi): selectivity: difference of pKi JAK3 and pKi JAK1
# T4 sequence (P52333 1-1124): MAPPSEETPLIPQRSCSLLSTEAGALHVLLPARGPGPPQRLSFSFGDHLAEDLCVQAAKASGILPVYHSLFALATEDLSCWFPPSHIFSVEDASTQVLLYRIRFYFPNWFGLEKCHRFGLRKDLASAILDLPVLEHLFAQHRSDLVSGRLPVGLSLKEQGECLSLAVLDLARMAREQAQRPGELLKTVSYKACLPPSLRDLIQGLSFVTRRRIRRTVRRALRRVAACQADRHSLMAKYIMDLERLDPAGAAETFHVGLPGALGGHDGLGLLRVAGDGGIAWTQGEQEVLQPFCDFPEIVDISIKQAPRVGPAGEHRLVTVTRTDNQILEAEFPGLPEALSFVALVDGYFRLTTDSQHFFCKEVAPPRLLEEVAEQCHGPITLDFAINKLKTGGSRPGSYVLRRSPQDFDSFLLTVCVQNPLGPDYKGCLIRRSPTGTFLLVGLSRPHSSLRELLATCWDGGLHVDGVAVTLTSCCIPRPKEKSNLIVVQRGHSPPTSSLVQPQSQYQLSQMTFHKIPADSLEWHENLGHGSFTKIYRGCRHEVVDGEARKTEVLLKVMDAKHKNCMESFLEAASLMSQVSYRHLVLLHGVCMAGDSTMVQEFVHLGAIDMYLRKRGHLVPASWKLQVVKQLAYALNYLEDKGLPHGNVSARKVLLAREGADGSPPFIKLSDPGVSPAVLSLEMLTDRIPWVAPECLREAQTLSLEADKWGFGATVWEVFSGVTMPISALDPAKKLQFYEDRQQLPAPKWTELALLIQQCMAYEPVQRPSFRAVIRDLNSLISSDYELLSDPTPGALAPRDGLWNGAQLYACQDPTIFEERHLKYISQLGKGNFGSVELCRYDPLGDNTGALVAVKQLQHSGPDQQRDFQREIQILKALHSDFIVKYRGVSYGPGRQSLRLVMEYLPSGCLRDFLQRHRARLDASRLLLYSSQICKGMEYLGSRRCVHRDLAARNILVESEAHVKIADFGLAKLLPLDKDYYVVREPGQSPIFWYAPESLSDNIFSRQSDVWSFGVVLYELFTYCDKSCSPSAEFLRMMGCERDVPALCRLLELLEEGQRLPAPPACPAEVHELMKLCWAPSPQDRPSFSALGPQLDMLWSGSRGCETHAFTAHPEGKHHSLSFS
# Outline: as §1
# T1 sequence (P23458 whole entry): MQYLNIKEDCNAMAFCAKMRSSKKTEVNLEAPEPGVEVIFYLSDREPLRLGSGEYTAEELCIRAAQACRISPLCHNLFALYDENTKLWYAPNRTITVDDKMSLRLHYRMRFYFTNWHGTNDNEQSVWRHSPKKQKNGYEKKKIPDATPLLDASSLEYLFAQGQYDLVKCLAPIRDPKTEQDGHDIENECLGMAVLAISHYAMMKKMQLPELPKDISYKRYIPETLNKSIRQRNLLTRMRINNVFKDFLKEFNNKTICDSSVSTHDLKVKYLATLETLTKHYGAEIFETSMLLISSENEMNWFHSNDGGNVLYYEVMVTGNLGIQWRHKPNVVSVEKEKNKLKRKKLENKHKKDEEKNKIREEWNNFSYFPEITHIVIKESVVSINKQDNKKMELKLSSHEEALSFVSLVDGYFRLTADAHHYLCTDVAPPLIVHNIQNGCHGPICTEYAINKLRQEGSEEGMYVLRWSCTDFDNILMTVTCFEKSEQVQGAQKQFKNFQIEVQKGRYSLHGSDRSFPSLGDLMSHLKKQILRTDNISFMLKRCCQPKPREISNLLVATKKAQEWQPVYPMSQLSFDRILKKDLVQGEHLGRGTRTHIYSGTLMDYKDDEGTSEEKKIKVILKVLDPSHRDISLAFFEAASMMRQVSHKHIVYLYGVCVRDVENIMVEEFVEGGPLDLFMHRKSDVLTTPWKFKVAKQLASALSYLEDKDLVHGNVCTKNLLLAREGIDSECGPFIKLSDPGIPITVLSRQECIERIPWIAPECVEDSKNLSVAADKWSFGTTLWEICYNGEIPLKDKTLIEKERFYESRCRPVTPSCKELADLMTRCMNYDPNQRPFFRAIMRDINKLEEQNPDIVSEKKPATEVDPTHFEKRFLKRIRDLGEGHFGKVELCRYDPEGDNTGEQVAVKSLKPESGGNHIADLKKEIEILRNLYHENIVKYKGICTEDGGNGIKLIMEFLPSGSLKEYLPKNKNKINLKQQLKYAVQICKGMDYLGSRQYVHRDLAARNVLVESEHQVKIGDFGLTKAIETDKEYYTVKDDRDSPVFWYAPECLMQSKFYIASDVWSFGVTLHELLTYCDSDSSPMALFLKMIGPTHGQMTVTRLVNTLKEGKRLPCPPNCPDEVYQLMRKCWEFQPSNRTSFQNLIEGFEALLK
Structure (SMILES),JAK 1 (pKi) (JAK1),JAK 2 (pKi) (JAK2),Tyk 2 (pKi) (Tyk2),Tall-1 (pIC50) [1],JAK 3 (pKi) (JAK3),JAK3 (pKi)-JAK1 (pKi) (JAK3),Ki (JAK1; read-out: JAK 1 (pKi) (converted)) [nM],Ki (JAK2; read-out: JAK 2 (pKi) (converted)) [nM],Ki (Tyk2; read-out: Tyk 2 (pKi) (converted)) [nM],"IC50 ([1]; Homo sapiens, TALL-1, IL-2 stimulated pSTAT5 in Tall-1 T cells, read-out: Tall-1 (pIC50) (converted)) [nM]",Ki (JAK3; read-out: JAK 3 (pKi) (converted)) [nM]
C=CC(=O)N1CC[C@H](COc2cc(-c3ccc(O)c(F)c3)cc3[nH]ncc23)C1 [Compound 2-5],E (a pKi value of 7 or below (Ki of 100 nM or above)),D (a pKi value between 7 and 8 (Ki between 100 nM and 10 nM)),E (a pKi value of 7 or below (Ki of 100 nM or above)),B (a pIC50 value between 6.7 (included) and 7.5 (IC50 between 200 nM and 32 nM)),B (a pKi value between 9 and 10 (Ki between 1 nM and 0.1 nM)),A (a value of 3 or above),–,–,–,–,–
C=CC(=O)N1CC[C@H](COc2nc(-c3ccc(O)cc3)cc3[nH]ncc23)C1 [Compound 2-8],E (a pKi value of 7 or below (Ki of 100 nM or above)),D (a pKi value between 7 and 8 (Ki between 100 nM and 10 nM)),E (a pKi value of 7 or below (Ki of 100 nM or above)),B (a pIC50 value between 6.7 (included) and 7.5 (IC50 between 200 nM and 32 nM)),B (a pKi value between 9 and 10 (Ki between 1 nM and 0.1 nM)),A (a value of 3 or above),–,–,–,–,–
C=CC(=O)N1CC[C@H](COc2nc(-c3ccc(O)c(F)c3)cc3[nH]ncc23)C1 [Compound 2-10],E (a pKi value of 7 or below (Ki of 100 nM or above)),D (a pKi value between 7 and 8 (Ki between 100 nM and 10 nM)),E (a pKi value of 7 or below (Ki of 100 nM or above)),A (a pIC50 value≥7.5 (IC50≤32 nM)),B (a pKi value between 9 and 10 (Ki between 1 nM and 0.1 nM)),A (a value of 3 or above),–,–,–,–,–
C=CC(=O)N1CC[C@H](COc2nc(-c3ccc(O)c(Cl)c3)nc3[nH]ncc23)C1 [Compound 2-11],E (a pKi value of 7 or below (Ki of 100 nM or above)),E (a pKi value of 7 or below (Ki of 100 nM or above)),E (a pKi value of 7 or below (Ki of 100 nM or above)),B (a pIC50 value between 6.7 (included) and 7.5 (IC50 between 200 nM and 32 nM)),B (a pKi value between 9 and 10 (Ki between 1 nM and 0.1 nM)),A (a value of 3 or above),–,–,–,–,–
C=CC(=O)N1CC[C@H](COc2nc(-c3ccc(O)c(F)c3)nc3[nH]ncc23)C1 [Compound 2-15],E (a pKi value of 7 or below (Ki of 100 nM or above)),E (a pKi value of 7 or below (Ki of 100 nM or above)),E (a pKi value of 7 or below (Ki of 100 nM or above)),B (a pIC50 value between 6.7 (included) and 7.5 (IC50 between 200 nM and 32 nM)),A (a pKi value≥10 (Ki≤0.1 nM)),A (a value of 3 or above),–,–,–,–,–
C=CC(=O)N1CC[C@H](COc2cc(-c3ccc(O)c(F)c3)nc3[nH]ncc23)C1 [Compound 2-17],E (a pKi value of 7 or below (Ki of 100 nM or above)),E (a pKi value of 7 or below (Ki of 100 nM or above)),E (a pKi value of 7 or below (Ki of 100 nM or above)),B (a pIC50 value between 6.7 (included) and 7.5 (IC50 between 200 nM and 32 nM)),A (a pKi value≥10 (Ki≤0.1 nM)),A (a value of 3 or above),–,–,–,–,–
C=CC(=O)N1CC(COc2cc(-c3ccc(O)cc3)cc3[nH]ncc23)C1 [Compound 3-1],–,–,–,–,–,A (a value of 3 or above),> 100,> 100,> 100,< 31.6,0.1 to 1
